In patent US11040028B2, “Penicinotam derivative, preparation method and use thereof” (OCEAN UNIVERSITY OF CHINA, priority 2017, dated 2021):

What was measured:
Assay type in all cases: cell-based
[1] = tested on: BHK-21 cells; assay: Anti-fibrosis activity test: inhibition of BHK-21 cell proliferation (CCK-8); settings: Mesocricetus auratus, BHK-21, 48 h
In short: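 Each concentration was tested in triplicate on adhered BHK-21 cells for 48 h, with pirfenidone as reference. A 2 h CCK-8 incubation preceded absorbance reading at 450 nm, and IC50 was obtained from percent inhibition versus blank.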

[2] = tested on: human hepatic stellate cells LX-2; assay: Anti-fibrosis activity test: inhibition of proliferation of human hepatic stellate cells LX-2 (CCK-8); settings: Homo sapiens, 48 h
In short: (§1)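 Proliferation read by CCK-8 (2 h, A450) after 48 h compound treatment of cells plated at 2×10^4 cells/mL and allowed 24 h attachment, triplicate per concentration. Inhibition rate derived from absorbance relative to untreated blank, with IC50 fitted; pirfenidone as positive control.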

[3] = tested on: cardiac fibroblast RAT-iCell-C002; assay: Anti-fibrosis activity test: inhibition of proliferation of cardiac fibroblast RAT-iCell-C002 (CCK-8); settings: Cardiac fibroblast, 48 h
In short: as §1

[4] = tested on: human dermal fibroblasts CCC-ESF-1; assay: Anti-fibrosis activity test: inhibition of proliferation of human dermal fibroblasts CCC-ESF-1 (CCK-8); settings: Fibroblast
In short: as §1

[5] = tested on: human lung fibroblasts HFL1; assay: Anti-fibrosis activity test: inhibition of proliferation of human lung fibroblasts HFL1 (CCK-8); settings: Homo sapiens, HFL1, 48 h
In short: as §1

[6] = tested on: human fibrosarcoma cells HT-1080; assay: Anti-fibrosis activity test: inhibition of proliferation of human fibrosarcoma cells HT-1080 (CCK-8); settings: Homo sapiens, HT-1080, 48 h
In short: as §1

[7] = tested on: mouse macrophages (RAW264.7); assay: Lipopolysaccharide-induced NO secretion in macrophages (Griess); settings: Mus musculus, RAW264.7, 24 h, RAW264.7, LPS 1 μg/ml, a/b isomers given as first/second symbol, read-out: IC50 (μM), inhibition of lipopolysaccharide-induced NO secretion in macrophages
In short: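 Percent inhibition of NO release was measured by Griess absorbance at 548 nm in supernatants. Cells were mouse RAW264.7 macrophages in 10% FBS DMEM, treated with graded compound concentrations and activated by LPS (1 μg/ml) for 24 h.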

[8] = tested on: NF-κB; assay: Immunological activity test: inhibition of NF-κB activity; settings: initial concentration of 30 μM; a/b isomers given as first/second symbol; read-out: IC50 (μM), inhibitory activity against NF-κB
In short: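 IC50 values were derived after initial screening of compounds at 30 μM for NF-κB inhibitory activity, with parthenolide serving as the positive control.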

[9] = tested on: human embryonic lung fibroblast IMR-90; assay: Anti-fibrosis activity test: inhibition of proliferation of human embryonic lung fibroblast IMR-90 (CCK-8)
In short: as §1

[10] = CCK-8, 48 hours after administration
[11] = human hepatic stellate cells LX-2, CCK-8, 48 hours
[12] = cardiac fibroblast RAT-iCell-C002, CCK-8, 48 hours
[13] = human dermal fibroblasts CCC-ESF-1, CCK-8, 48 hours
[14] = human lung fibroblasts HFL1, CCK-8, 48 hours
[15] = human fibrosarcoma cells HT-1080, CCK-8, 48 hours
[16] = human embryonic lung fibroblast IMR-90, CCK-8, 48 hours
[17] = Homo sapiens, CCC-ESF-1 cells, 48 h, CCK-8
[18] = Homo sapiens, IMR-90 cells, 48 h, CCK-8

IC50 [6, 15] | IC50 [7] | IC50 [8] | IC50 ([6]; HT-1080 cells, 48 h, CCK-8) | Structure (SMILES) | IC50 [1, 10] | IC50 [2, 11] | IC50 [3, 12] | IC50 [4, 13] | IC50 [5, 14] | IC50 [9, 16] | IC50 ([1]; 48 h, CCK-8) | IC50 ([2]; LX-2, 48 h, LX-2 cells, CCK-8) | IC50 ([3]; RAT-iCell-C002 cells, CCK-8) | IC50 [4, 17] | IC50 ([5]; HFL1 cells, 48 h, CCK-8) | IC50 [9, 18]
0.05 to 5 mM | 1 to 10 µM | 1 to 10 µM |  | O=C1c2c(n(Cc3cccc(Cl)c3)c3ccccc3c2=O)-c2cccn21 [Compound 596a, 4-(3-Chlorobenzyl)-9H-pyrrolizino[1,2-b]quinoline-9,10(4H)-dione] | 0.05 to 5 mM | 0.05 to 5 mM | 0.05 to 5 mM | 0.05 to 5 mM | 0.05 to 5 mM | 0.05 to 5 mM |  |  |  |  |  | 
 | 10 to 50 µM | 0.1 to 1 µM | 0.05 to 5 mM | O=C1c2nc3ccccc3c(OCCCN3CCOCC3)c2-c2cccn21 [Compound 787b, 11-(3-morpholinopropoxy)-5H-pyrrolizino[2,1-b]quinolin-5-one] |  |  |  |  |  |  | 0.05 to 5 mM | 0.05 to 5 mM | 0.05 to 5 mM | 0.05 to 5 mM | 0.05 to 5 mM | 0.05 to 5 mM
0.05 to 5 mM | 1 to 10 µM | 1 to 10 µM |  | CS(=O)(=O)CCCOc1c2c(nc3ccccc13)-c1cccn1C2=O [Compound 659b, 9-(3-(methylsulfonyl)propoxy)-10H-pyrrolizino[1,2-b]quinolin-10-one] | 0.05 to 5 mM | 0.05 to 5 mM | 0.05 to 5 mM | 0.05 to 5 mM | 0.05 to 5 mM | 0.05 to 5 mM |  |  |  |  |  | 
0.05 to 5 mM | 1 to 10 µM | 1 to 10 µM |  | O=C1c2c(n(Cc3ccc(F)c(F)c3)c3ccccc3c2=O)-c2cccn21 [Compound 601a, 4-(3,4-Difluorobenzyl)-9H-pyrrolizino[1,2-b]quinoline-9,10(4H)-dione] | 0.05 to 5 mM | 0.05 to 5 mM | 0.05 to 5 mM | 0.05 to 5 mM | 0.05 to 5 mM | 0.05 to 5 mM |  |  |  |  |  | 
 | 1 to 10 µM | 1 to 10 µM | 0.05 to 5 mM | Cc1cccc2nc3c(c(O)c12)C(=O)n1cccc1-3 [Compound 678b, 9-hydroxy-8-methyl-10H-pyrrolizino[1,2-b]quinolin-10-one] |  |  |  |  |  |  | 0.05 to 5 mM | 0.05 to 5 mM | 0.05 to 5 mM | 0.05 to 5 mM | 0.05 to 5 mM | 0.05 to 5 mM
0.05 to 5 mM | 1 to 10 µM | 1 to 10 µM |  | O=C1c2c(n(Cc3cccc(C(F)(F)F)c3)c3ccccc3c2=O)-c2cccn21 [Compound 598a, 4-(3-(Trifluoromethyl)benzyl)-9H-pyrrolizino[1,2-b]quinoline-9,10(4H)-dione] | 0.05 to 5 mM | 0.05 to 5 mM | 0.05 to 5 mM | 0.05 to 5 mM | 0.05 to 5 mM | 0.05 to 5 mM |  |  |  |  |  | 
0.05 to 5 mM | 1 to 10 µM | 1 to 10 µM |  | CC(C)(C)c1ccc(COc2c3c(nc4ccccc24)-c2cccn2C3=O)cc1 [Compound 605b, 9-((4-(tert-butyl)benzyl)oxy)-10H-pyrrolizino[1,2-b]quinolin-10-one] | 0.05 to 5 mM | 0.05 to 5 mM | 0.05 to 5 mM | 0.05 to 5 mM | 0.05 to 5 mM | 0.05 to 5 mM |  |  |  |  |  | 
 | 1 to 10 µM | 1 to 10 µM | 0.05 to 5 mM | Cc1cc2n(c1)C(=O)c1[nH]c3ccccc3c(=O)c1-2 [Compound 798a, 2-Methyl-5H-pyrrolizino[2,1-b]quinoline-5,11(6H)-dione] |  |  |  |  |  |  | < 0.05 mM | 0.05 to 5 mM | 0.05 to 5 mM | 0.05 to 5 mM | 0.05 to 5 mM | 0.05 to 5 mM
0.05 to 5 mM | 10 to 50 µM | 1 to 10 µM |  | O=C1c2c(n(Cc3ccccc3Br)c3ccccc3c2=O)-c2cccn21 [Compound 612a, 4-(2-Bromobenzyl)-9H-pyrrolizino[1,2-b]quinoline-9,10(4H)-dione] | 0.05 to 5 mM | 0.05 to 5 mM | 0.05 to 5 mM | 0.05 to 5 mM | 0.05 to 5 mM | 0.05 to 5 mM |  |  |  |  |  | 
 | 1 to 10 µM | 1 to 10 µM | 0.05 to 5 mM | CCOCCCn1c2c(c(=O)c3ccccc31)C(=O)n1cccc1-2 [Compound 672a, 4-(3-Ethoxypropyl)-9H-pyrrolizino[1,2-b]quinoline-9,10(4H)-dione] |  |  |  |  |  |  | 0.05 to 5 mM | 0.05 to 5 mM | 0.05 to 5 mM | 0.05 to 5 mM | 0.05 to 5 mM | 0.05 to 5 mM

Continued, molecule first:

Structure (SMILES) | IC50 [6, 15] | IC50 [7] | IC50 [8] | IC50 ([6]; HT-1080 cells, 48 h, CCK-8) | IC50 [1, 10] | IC50 [2, 11] | IC50 [3, 12] | IC50 [4, 13] | IC50 [5, 14] | IC50 [9, 16] | IC50 ([1]; 48 h, CCK-8) | IC50 ([2]; LX-2, 48 h, LX-2 cells, CCK-8) | IC50 ([3]; RAT-iCell-C002 cells, CCK-8) | IC50 [4, 17] | IC50 ([5]; HFL1 cells, 48 h, CCK-8) | IC50 [9, 18]
O=C(COc1c2c(nc3ccccc13)-c1cccn1C2=O)c1ccc(-c2ccccc2)cc1 [Compound 50b, 9-(2-([1,1′-biphenyl]-4-yl)-2-oxoethoxy)-10H-pyrrolizino[1,2-b]quinolin-10-one] | 0.05 to 5 mM | 1 to 10 µM | 1 to 10 µM |  | 0.05 to 5 mM | 5 to 20 mM | 5 to 20 mM | < 0.05 mM | 0.05 to 5 mM | 5 to 20 mM |  |  |  |  |  | 
O=C1c2c(nc3ccc(C(F)(F)F)cc3c2O)-c2cccn21 [Compound 282b, 9-hydroxy-7-(trifluoromethyl)-10H-pyrrolizino[1,2-b]quinolin-10-one] | 0.05 to 5 mM | 10 to 50 µM | 1 to 10 µM |  | 0.05 to 5 mM | 0.05 to 5 mM | 0.05 to 5 mM | 0.05 to 5 mM | 0.05 to 5 mM | 0.05 to 5 mM |  |  |  |  |  | 
COc1c2c(nc3cc(N4CCNCC4)ccc13)-c1cccn1C2=O [Compound 328b, 9-methoxy-6-(piperazin-1-yl)-10H-pyrrolizino[1,2-b]quinolin-10-one] | 0.05 to 5 mM | 1 to 10 µM | 1 to 10 µM |  | 0.05 to 5 mM | 0.05 to 5 mM | 0.05 to 5 mM | 0.05 to 5 mM | 0.05 to 5 mM | 0.05 to 5 mM |  |  |  |  |  | 
N#Cc1cccc2c(=O)c3c([nH]c12)-c1cccn1C3=O [Compound 447a, 9,10-Dioxo-4,10-dihydro-9H-pyrrolizino[1,2-b]quinoline-5-carbonitrile] | < 0.05 mM | 0.1 to 1 µM | 0.1 to 1 µM |  | 0.05 to 5 mM | 0.05 to 5 mM | 0.05 to 5 mM | 0.05 to 5 mM | 0.05 to 5 mM | 0.05 to 5 mM |  |  |  |  |  | 
O=C1c2c(nc3ccccc3c2OCc2ccc(OC(F)(F)F)cc2)-c2cccn21 [Compound 592b, 9-((4-(trifluoromethoxy)benzyl)oxy)-10H-pyrrolizino[1,2-b]quinolin-10-one] | 0.05 to 5 mM | 1 to 10 µM | 1 to 10 µM |  | 0.05 to 5 mM | 0.05 to 5 mM | 0.05 to 5 mM | 0.05 to 5 mM | 0.05 to 5 mM | 0.05 to 5 mM |  |  |  |  |  | 
O=C1c2c(n(Cc3cccc([N+](=O)[O-])c3)c3ccccc3c2=O)-c2cccn21 [Compound 583a, 4-(3-Nitrobenzyl)-9H-pyrrolizino[1,2-b]quinoline-9,10(4H)-dione] | 0.05 to 5 mM | 1 to 10 µM | 1 to 10 µM |  | 0.05 to 5 mM | 0.05 to 5 mM | 0.05 to 5 mM | 0.05 to 5 mM | 0.05 to 5 mM | 0.05 to 5 mM |  |  |  |  |  | 
O=C1c2c(nc3ccccc3c2OCc2cccc(F)c2)-c2cccn21 [Compound 595b, 9-((3-fluorobenzyl)oxy)-10H-pyrrolizino[1,2-b]quinolin-10-one] | 0.05 to 5 mM | 0.1 to 1 µM | 1 to 10 µM |  | 0.05 to 5 mM | 0.05 to 5 mM | 0.05 to 5 mM | 0.05 to 5 mM | 0.05 to 5 mM | 0.05 to 5 mM |  |  |  |  |  | 
Cn1c2c(c(=O)c3ccc(N4CCNCC4)cc31)C(=O)n1cccc1-2 [Compound 328a, 4-Methyl-6-(piperazin-1-yl)-9H-pyrrolizino[1,2-b]quinoline-9,10(4H)-dione] | 0.05 to 5 mM | 1 to 10 µM | 0.1 to 1 µM |  | < 0.05 mM | 0.05 to 5 mM | 0.05 to 5 mM | 0.05 to 5 mM | 0.05 to 5 mM | 0.05 to 5 mM |  |  |  |  |  | 
O=C1c2c(nc3ccccc3c2OCc2c(F)c(F)c(F)c(F)c2F)-c2cccn21 [Compound 586b, 9-((perfluorophenyl)methoxy)-10H-pyrrolizino[1,2-b]quinolin-10-one] | 0.05 to 5 mM | 1 to 10 µM | 1 to 10 µM |  | 0.05 to 5 mM | 0.05 to 5 mM | 0.05 to 5 mM | 0.05 to 5 mM | 0.05 to 5 mM | 0.05 to 5 mM |  |  |  |  |  | 
